Broadly, the IC50 is the point on the concentration scale where inhibition reaches its midpoint.

In one assay the target is T1, NK1 receptor (Cavia porcellus, UniProt P30547).
T1 construct: evaluated in guinea pig lungs (Keystone Biologicals, Cleveland, OH); tissue Keystone Biologicals, Cleveland, OH; host or cells: guinea pig lung membranes
Description: Antagonism of iodinated tachykinin binding to NK1 receptors (Example A). The arrangement: species or system guinea pig. How it is done:
(§1) One skilled in the art can determine the NK1 receptor and NK2 receptor affinity in vitro as follows. The NK1 receptor affinity of tachykinin antagonists is evaluated in guinea pig lungs (Keystone Biologicals, Cleveland, OH) and affinity for the NK2 receptor is evaluated in HSKR-1 cells (which are mouse 3T3 fibroblasts expressing the human jejunal NK2 receptor). Tissues or cells are homogenized with a Polytron in 15 volumes of 50 mM Tris-HC1 buffer (pH 7.4, 4°C) and centrifuged. The pellet is resuspended in Tris-HCl buffer and is centrifuged; the pellet is washed twice by resuspension. The final pellet is resuspended at a concentration of 40 mg/ml for tissues and 20 mg/ml for cells in incubation buffer and remains at room temperature for at least 15 min prior to use. Receptor binding is initiated by addition of 250 ul membrane preparation in duplicate to 0.1 nM of the following radioligands: ^125I-Bolton Hunter Lys-3 labeled substance P and ^125iodohistidyl-1-neurokinin A; in a final volume of 500 ul of buffer containing 50 mM Tris-HCl (pH 7.4 at room temperature), 0.1% bovine serum albumin, 2 mM mangenese chloride, 40 ug/ml bacitracin, 4 µg/ml leupeptin and chymostatin, 10 µM thiorphan and various doses of the putative tachykinin antagonists. Incubations are performed at room temperature for 90 min (NK1 receptor assays) or 2 hr (NK2 receptor assay); binding is terminated by addition of 50 mM Tris-HCl buffer (pH 7.4, 4°C) and filtration under vacuum through GF/B filters presoaked with 0.1% polyethyleneimine (NK1 receptor assays) or 0.5% bovine serum albumin (NK2 receptor assay). Filter bound radioactivity is quantitated in a gamma counter. Nonspecific binding is defined as binding in the presence of 1 µM substance P or neurokinin A. Specific binding is calculated by subtracting nonspecific binding from total binding. Competition of iodinated SP or NKA binding by test compounds or standards is expressed as a percentage of this maximum binding. IC50 values (concentration required to inhibit 50% of receptor binding) are generated for each of the test compounds by nonlinear regression using an iterative curve fitting program (GraphPAD Inplot, San Diego, CA).
(§2) Tackykinin receptor binding (IC50 values) for representative compounds of the present invention is found in Table 1. The values in Table 1 were determined by the method of present Example A and represent the mean of several experiments, except where noted. […]

Assay [1] concerns the target T2, human jejunal NK2 receptor (Homo sapiens, UniProt P21452).
T2 construct: expressed in transfected cells; host or cells: HSKR-1 cells (mouse 3T3 fibroblasts)
T2 sequence (P21452 1-398): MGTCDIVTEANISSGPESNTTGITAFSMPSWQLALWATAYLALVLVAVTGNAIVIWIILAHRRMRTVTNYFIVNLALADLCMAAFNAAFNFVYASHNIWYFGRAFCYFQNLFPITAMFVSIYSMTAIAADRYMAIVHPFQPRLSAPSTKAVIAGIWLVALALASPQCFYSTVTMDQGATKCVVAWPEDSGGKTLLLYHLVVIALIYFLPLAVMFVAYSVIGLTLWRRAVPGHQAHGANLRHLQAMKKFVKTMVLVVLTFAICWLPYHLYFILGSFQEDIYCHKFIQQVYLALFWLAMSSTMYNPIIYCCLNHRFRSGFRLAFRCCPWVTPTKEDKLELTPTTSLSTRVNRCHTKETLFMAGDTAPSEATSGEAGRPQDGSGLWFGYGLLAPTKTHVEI
The experiment in a line: Antagonism of iodinated tachykinin binding to NK2 receptors (Example A). How it is done: as §1, §2

The mark [2] stands for this setting: read-out: Tachykinin Receptor Binding NK1 IC50, guinea pig lungs membranes, 0.1 nM 125I-Bolton Hunter Lys-3 labeled substance P, 90 min room temperature, mean of several experiments.
Setting [3] is: read-out: Tachykinin Receptor Binding NK2 IC50, HSKR-1 cells (mouse 3T3 fibroblasts expressing the human jejunal NK2 receptor), 0.1 nM 125iodohistidyl-1-neurokinin A, 2 hr room temperature, mean of several experiments.

The structures appear in SMILES notation. Structures can show the parent of a compound that is named as a salt. Where two headings read alike, the source gives them in different places.

T1 sequence (P30547 whole entry): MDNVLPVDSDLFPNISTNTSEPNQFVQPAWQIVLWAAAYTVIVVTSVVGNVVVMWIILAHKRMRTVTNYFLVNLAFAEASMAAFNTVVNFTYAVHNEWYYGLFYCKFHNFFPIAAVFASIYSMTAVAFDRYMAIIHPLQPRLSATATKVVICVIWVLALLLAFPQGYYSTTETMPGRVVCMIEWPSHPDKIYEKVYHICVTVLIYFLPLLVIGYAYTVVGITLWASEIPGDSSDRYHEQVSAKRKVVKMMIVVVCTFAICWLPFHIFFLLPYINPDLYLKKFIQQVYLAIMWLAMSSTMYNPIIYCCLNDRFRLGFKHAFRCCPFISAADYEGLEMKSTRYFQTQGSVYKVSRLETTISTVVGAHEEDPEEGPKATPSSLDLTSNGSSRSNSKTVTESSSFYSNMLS

As for `COc1cc(C(=O)N2CC[C@](CCN3CCC(C(=O)N4CCC[C@H]4C(=O)O)(c4ccccc4)CC3)(c3ccc(Cl)c(Cl)c3)C2)cc(OC)c1OC` [Example 15.2, (R)-1-(3,4,5-trimethoxybenzonyl)-3-(2-(4-phenyl-4-(((S)-2-carboxypyrrolidin-1-yl)carboxamido)piperidin-1-yl)ethyl)-3-(3,4-dichlorophenyl)pyrrolidine hydrochloric acid salt], the IC50 on NK1 receptor is 14 nM; in assay [1], 17.4 nM.
For the compound `COc1cc(C(=O)N2CC[C@](CCN3CCC(C(=O)N4CCN(CC(=O)OCC(=O)N(CCO)CCO)CC4)(c4ccccc4)CC3)(c3ccc(Cl)c(Cl)c3)C2)cc(OC)c1OC` [Example 36.1, (R)-1-(3,4,5-Trimethoxybenzoyl)-3-(2-(4-phenyl-4-((4-carbo(N,N-di-(2-hydroxyethyl)carboxamidomethoxy)methylpiperazin-1-yl)carboxamido)piperidin-1-yl)ethyl)-3-(3,4-dichlorophenyl)pyrrolidine], the IC50 was 2.68 nM on NK1 receptor (setting [2]) and 2.32 nM in assay [1] (setting [3]).
Regarding `COc1cc(C(=O)N2CC[C@](CCN3CCC(C(=O)N4CCOC(C(=O)O)C4)(c4ccccc4)CC3)(c3ccc(Cl)c(Cl)c3)C2)cc(OC)c1OC` (stereo partly drawn) [Example 26.1, (R)-1-(3,4,5-Trimethoxybenzoyl)-3-(2-(4-phenyl-4-((2-carboxymorpholin-4-yl)carboxamido)piperidin-1-yl)ethyl)-3-(3,4-dichlorophenyl)pyrrolidine], the IC50 at NK1 receptor was determined as 9.9 nM; in assay [1] it was 5.7 nM.
For the compound `COc1ccc(-n2cnnn2)cc1C(=O)N1CC[C@](CCN2CCC(C(=O)N3CCN(CC(=O)O)CC3)(c3ccccc3)CC2)(c2ccc(Cl)c(Cl)c2)C1` [Example 11.1, (R)-1-(2-methoxy-5-(1H-tetrazol-1-yl)benzoyl)-3-(2-(4-phenyl-4-((4-carboxymethylpiperazin-1-yl)carboxamido)piperidin-1-yl)ethyl)-3-(3,4-dichlorophenyl)pyrrolidine hydrochloric acid salt], the IC50 on NK1 receptor stood at 10.5 nM; in assay [1], 70.7 nM.
Consider `COC(=O)C1CCCN1C(=O)C1(c2ccccc2)CCN(CCC2(c3ccc(Cl)c(Cl)c3)CCN(C(=O)c3cc(OC)c(OC)c(OC)c3)C2)CC1` [Example 14.1, (R)-1-(3,4,5-Trimethoxybenzoyl)-3-(2-(4-phenyl-4-(((S)-2-carbomethoxypyrrolidin-1-yl)carboxamido)piperidin-1-yl)ethyl)-3-(3,4-dichlorophenyl)pyrrolidine], for which the IC50 came to 4.32 nM at NK1 receptor and 4.51 nM in assay [1].
In the case of `COc1cc(C(=O)N2CC[C@](CCN3CCC(C(=O)N4CCN(CC(=O)OCOC(=O)C(C)(C)C)CC4)(c4ccccc4)CC3)(c3ccc(Cl)c(Cl)c3)C2)cc(OC)c1OC` [Example 32.2, (R)-1-(3,4,5-trimethoxybenzoyl)-3-(2-(4-phenyl-4-((4-carbo(t-butylcarbonyloxymethoxy)methylpiperazin-1-yl)carboxamido)piperidine)ethyl)-3-(3,4-dichlorophenyl)pyrrolidine fumaric acid salt], the figures for the IC50 (on NK1 receptor (setting [2]); in assay [1] (setting [3])) were 21.2 nM and 13.9 nM, respectively.
Take `COc1cc(C(=O)N2CC[C@@](CCN3CCC(C(=O)N4CCN(CC(=O)O)CC4)(c4ccccc4)CC3)(c3ccc(Cl)c(Cl)c3)C2)cc(OC)c1OC` [Example 13.3, (S)-1-(3,4,5-trimethoxybenzoyl)-3-(2-(4-phenyl-4-((4-carboxymethylpiperazin-l-yl)carboxamido)piperidine)ethyl)-3-(3,4-dichlorophenyl)pyrrolidine hydrochloric acid salt]: the figures for the IC50 (on NK1 receptor; in assay [1]) were 5.63 nM and 3.13 nM, respectively.
For `CCOC(=O)CN1CCN(C(=O)C2(c3ccccc3)CCN(CC[C@]3(c4ccc(Cl)c(Cl)c4)CCN(C(=O)c4cc(-n5cnnn5)ccc4OC)C3)CC2)CC1` [Example 10.4, (R)-1-(2-methoxy-5-(1H-tetrazol-1-yl)benzoyl)-3-(2-(4-phenyl-4-((4-carboethoxymethylpiperazin-1-yl)carboxamido)piperidine)ethyl)-3-(3,4-dichlorophenyl)pyrrolidine hydrochloric acid salt], the results for the IC50 (on NK1 receptor; in assay [1]) were 8.42 nM and 51.8 nM, respectively.
As to `CCOC(=O)CN1CCN(C(=O)C2(c3ccccc3)CCN(CC[C@]3(c4ccc(Cl)c(Cl)c4)CCN(C(=O)c4cc(OC)c(OC)c(OC)c4)C3)CC2)CC1` [Example 8.3.1, (R)-1-(3,4,5-trimethoxvbenzoyl)-3-(2-(4-phenyl-4-((4-carboethoxymethylpiperazin-1-yl)carboxamido)piperidine)ethyl)-3-(3,4-dichlorophenyl)pyrrolidine hydrochloric acid salt], the IC50 on NK1 receptor turned out to be 7.7 nM; in assay [1] it was 2.41 nM.
With `CCOC(=O)OCOC(=O)CN1CCN(C(=O)C2(c3ccccc3)CCN(CC[C@]3(c4ccc(Cl)c(Cl)c4)CCN(C(=O)c4cc(OC)c(OC)c(OC)c4)C3)CC2)CC1` [Example 31.2, (R)-1-(3,4,5-trimethoxybenzoyl)-3-(2-(4-phenyl-4-((4-carbo(ethoxycarbonyloxymethoxy)methylpiperazin-1-yl)carboxamido)piperidine)ethyl)-3-(3,4-dichlorophenyl)pyrrolidine fumaric acid salt], the IC50 on NK1 receptor (setting [2]) was 11.7 nM; in assay [1] (setting [3]) it was 9.1 nM.
On to `COc1cc(C(=O)N2CC[C@](CCN3CCC(C(=O)N4CCN(CC(=O)O)CC4)(c4cccnc4)CC3)(c3ccc(Cl)c(Cl)c3)C2)cc(OC)c1OC` [Example 6.1, (R)-1-(3,4,5-trimethoxybenzoyl)-3-(2-(4-(pyrid-3-yl)-4-((4-carboxymethylpiperazin-1-yl)carboxamido)piperidin-1-yl)ethyl)-3-(3,4-dichlorophenyl)pyrrolidine hydrochloric acid salt], for which the IC50 on NK1 receptor was 16.1 nM; in assay [1] it was 14.7 nM.
`COc1cc(C(=O)N2CC[C@](CCN3CCC(C(=O)N4CCC(C(=O)O)CC4)(c4ccccc4)CC3)(c3ccc(Cl)c(Cl)c3)C2)cc(OC)c1OC` [Example 22.1, (R)-1-(3,4,5-trimethoxybenzoyl)-3-(2-(4-phenyl-4-((4-carboxypiperidin-1-yl)carboxamido)piperidin-1-yl)ethyl)-3-(3,4-dichlorophenyl)pyrrolidine hydrochloric acid salt]: the IC50 at NK1 receptor came out at 4.05 nM; in assay [1], 6.29 nM.
Turning to `COc1cc(C(=O)N2CC[C@](CCN3CCC(C(=O)N4CCN(CC(=O)O)CC4)(c4ccccc4)CC3)(c3ccc(Cl)c(Cl)c3)C2)cc(OC)c1OC` [Example 9.2, (R)-1-(3,4,5-trimethoxybenzoyl)-3-(2-(4-phenyl-4-((4-carboxymethylpiperazin-1-yl)carboxamido)piperidine)ethyl)-3-(3,4-dichlororophenyl)pyrrolidine hydrochloric acid salt], the IC50 on NK1 receptor is 5.63 nM; in assay [1] it was 3.13 nM.
In the same order, the values of `CCOC(=O)C1CCN(C(=O)C2(c3ccccc3)CCN(CC[C@]3(c4ccc(Cl)c(Cl)c4)CCN(C(=O)c4cc(OC)c(OC)c(OC)c4)C3)CC2)CC1` [Example 21.1, (R)-1-(3,4,5-Trimethoxybenzoyl)-3-(2-(4-phenyl-4-((4-carboethoxypiperidin-1-yl)carboxamido)piperidin-1-yl)ethyl)-3-(3,4-dichlorophenyl)pyrrolidine] are 10.4 nM and 2.28 nM.
